Values of other authors as cited in patent publication US20130142849A1 (LUPIN LIMITED, priority 2010, published 2013).
Like-named read-outs stand apart in the source and are kept apart here.

SMILES: CCCCc1oc2ccc(NS(C)(=O)=O)cc2c1C(=O)c1ccc(OCCCN(CCCC)CCCC)cc1.Cl [Dronedarone, N-{2-butyl-3-[4-(3-dibutylaminopropoxy)benzoyl]benzofuran-5-yl}methane sulfonamide, hydrochloride]
- absolute oral bioavailability (administered with a high fat meal): approx. 15%
- absolute oral bioavailability (fasting): 4%
